Several values for one entry are separate records, joined by “and”; a condition that tells them apart may be missing. Equal entries are not always repeated. Entries after “also recorded” stand apart in the source; their conditions may differ.
Key:
SARS-CoV-2 = settings: Scripps ReFrame database; cited from earlier work
in vivo = settings: male, Sprague-Dawley, rat, po; for AUC(0-t): AUClast
[1] = Pharmacokinetics (plasma and lung tissue) after single and 5-day repeat oral dosing in female 129S1 mice; settings: for adverse reactions / tolerability: female 129S1 mice, PO 50 and 250 mg/kg up to 5 days; for Kp: Lung/Plasma AUC ratio; for AUC(0-t): AUClast ± SE; for MRT last at 5 day / MRT last: MRTlast; for Kp at 24 h: L/P Ratio, non-infected mice, 250 mg/kg QD oral
[2] = Pharmacokinetics (plasma, lung at 24 h) after single oral dosing in male Sprague-Dawley rats
[3] = 1000 mg/kg, Plasma concentration
[4] = female, 129S1, mouse, in vivo, 250 mg/kg
[5] = female, 129S1, mouse, in vivo, po, 50 mg/kg
[6] = female, 129S1, mouse, in vivo, po, 50 mg/kg, plasma, 50 mg/kg PO multiple, 5-day, dose
[7] = female, 129S1, mouse, in vivo, po, 50 mg/kg, plasma, 50 mg/kg PO single dose
[8] = female, 129S1, mouse, in vivo, po, 250 mg/kg
[9] = female, 129S1, mouse, in vivo, po, 250 mg/kg, plasma, 250 mg/kg PO multiple, 5-day, dose
[10] = female, 129S1, mouse, in vivo, po, 250 mg/kg, plasma, 250 mg/kg PO single dose
[11] = female, 129S1, mouse, in vivo, po, 250 mg/kg, lung, 250 mg/kg PO multiple, 5-day, dose

## Cc1c(-c2ccc(O)cc2)n(Cc2ccc(OCCN3CCCCC3)cc2)c2ccc(O)cc12 [Pipendoxifene, 2-(4-hydroxyphenyl)-3-methyl-1-[[4-(2-piperidin-1-ylethoxy)phenyl]methyl]indol-5-ol]
SARS-CoV-2
  activity in HTS: INACTIVE
In vivo; 250 mg/kg
  AUC(0-t): 4120 ng·h/mL
  Cmax: 336 ng/mL
In vivo; 250 mg/kg, tmax
  Tmax: 6 h
In vivo; 500 mg/kg
  Cmax: 462 ng/mL
In vivo; 500 mg/kg, tmax
  Tmax: 6 h
In vivo; 750 mg/kg
  AUC(0-t): 5260 ng·h/mL
In vivo; 750 mg/kg, tmax
  Tmax: 6 h
In vivo; 1000 mg/kg
  AUC(0-t): 5700 ng·h/mL
  Cmax: 452 ± 75 ng/mL
In vivo; 1000 mg/kg, AUC∞
  AUC(0-inf): 7730 ng·h/mL
In vivo; [3]
  concentration at 0.25 h: 5.05 ng/mL
  concentration at 0.25 hr: 5.05 ng/mL
  concentration at 2 h: 226 ng/mL
  concentration at 2 hr: 226 ng/mL
  concentration at 4 h: 335 ng/mL
  concentration at 4 hr: 335 ng/mL
  concentration at 6 h: 489 ng/mL
  concentration at 8 h: 295 ng/mL
  concentration at 8 hr: 295 ng/mL
In vivo; 1000 mg/kg, tmax
  Tmax: 6 h
In vivo; Mean Tmax (plasma), range
  Tmax: 5.3 to 6 h
[1]; 50 mg/kg
  Lung Cmax over SARS-CoV-2 IC50: 17 fold
[1]; 50 mg/kg PO single dose, 1.0 hr
  Mean plasma concentration: 89.1 ng/mL
[1]; 250 mg/kg
  Lung Cmax over SARS-CoV-2 IC50: 121 fold
[1]; 250 mg/kg PO single dose, 0.5 hr
  Mean plasma concentration: 88.8 ng/mL
[1]
  adverse reactions / tolerability: no adverse events
[1]; listed as MDL-001
  adverse reactions / tolerability: well tolerated with no adverse clinical signs; also recorded: No adverse reactions were observed
[1]; listed as pipendoxifene
  adverse reactions / tolerability: No adverse reactions were observed
[1]; female, 129S1, mouse, in vivo, 50 mg/kg
  concentration at 8 hr: 7840 ng/g
[1]; female, 129S1, mouse, in vivo, 50 mg/kg, Day 1, 50 mg/kg
  Kp: 65
[1]; female, 129S1, mouse, in vivo, 50 mg/kg, Day 5, 50 mg/kg
  Kp: 56
[1]; [4]
  concentration at 8 h: 575 ± 194 ng/mL
  concentration at 8 hr: 121 ng/mL
  half-life: 2.36 to 3.96 h
[1]; female, 129S1, mouse, in vivo, 250 mg/kg, Day 1, 250 mg/kg
  Kp: 36
[1]; female, 129S1, mouse, in vivo, 250 mg/kg, Day 5, 250 mg/kg
  Kp: 44
[1]; [5]
  Cmax: 179 ng/mL and 8310 ng/g
  Cmax at 5 day: 5610 ± 925 ng/g
  half-life: 2.36 h
  half-life at 5 day: 2.58 h
[1]; [6]
  AUC(0-t): 1390 ± 55 ng·h/mL
  AUC(0-inf): 1400 ng·h/mL
  MRT last at 5 day: 7.1 h
[1]; [7]
  AUC(0-t): 1600 ± 115 ng·h/mL
  AUC(0-inf): 1600 ng·h/mL
  MRT last: 6.95 h
  Tmax: 2 h
[1]; female, 129S1, mouse, in vivo, po, 50 mg/kg, lung, 50 mg/kg PO multiple, 5-day, dose
  Tmax at 5 day: 8 h
[1]; female, 129S1, mouse, in vivo, po, 50 mg/kg, lung, 50 mg/kg PO single dose
  Tmax: 4 h
[1]; [8]
  Cmax: 1020 ng/mL and 24700 ng/g
  Cmax at 5 day: 39000 ± 8840 ng/g
  half-life: 3.96 h
  half-life at 5 day: 2.52 h
[1]; [9]
  AUC(0-t): 11600 ± 1190 ng·h/mL
  AUC(0-inf): 11700 ng·h/mL
[1]; [10]
  AUC(0-inf): 10500 ng·h/mL
  MRT last: 8.86 h
[1]; female, 129S1, mouse, in vivo, po, 250 mg/kg, Day 1
  Kp at 24 h: 114
[1]; female, 129S1, mouse, in vivo, po, 250 mg/kg, Day 5
  Kp at 24 h: 177
[1]; [11]
  MRT last at 5 day: 7.22 h
  Tmax at 5 day: 4 h
[1]; female, 129S1, mouse, in vivo, po, 250 mg/kg, lung, 250 mg/kg PO single dose
  Tmax: 8 h
[1]; female, 129S1, mouse, lung, oral, 50 mg/kg, Mean lung tissue concentration, 50 mg/kg PO multiple, 5-day, dose, 8.0 hr
  concentration at 8 h: 5610 ± 1600 ng/g
[1]; female, 129S1, mouse, plasma, oral, 50 mg/kg, Mean plasma concentration, 50 mg/kg PO single dose, 1.0 hr
  concentration at 1 hr: 89.1 ± 71.2 ng/mL
[1]; female, 129S1, mouse, plasma, oral, 50 mg/kg, Mean plasma concentration, 50 mg/kg PO single dose, 4.0 hr
  concentration at 4 h: 107 ± 23 ng/mL
[1]; female, 129S1, mouse, plasma, oral, 50 mg/kg, Plasma Conc., individual mouse, 50 mg/kg PO multiple, 5-day, dose, 2.0 hr
  concentration at 2 hr: 113 ng/mL
[1]; female, 129S1, mouse, plasma, oral, 50 mg/kg, Plasma Conc., individual mouse, 50 mg/kg PO multiple, 5-day, dose, 6.0 hr
  concentration at 6 hr: 163 ng/mL
[1]; female, 129S1, mouse, plasma, oral, 50 mg/kg, Plasma Conc., individual mouse, 50 mg/kg PO single dose, 8.0 hr
  concentration at 8 hr: 113 ng/mL
[1]; female, 129S1, mouse, plasma, oral, 250 mg/kg, Mean plasma concentration, 250 mg/kg PO single dose, 0.5 hr
  concentration at 0.5 h: 88.8 ± 14.1 ng/mL
[1]; female, 129S1, mouse, plasma, oral, 250 mg/kg, Plasma Conc., individual mouse, 250 mg/kg PO multiple, 5-day, dose, 4.0 hr
  concentration at 4 hr: 497 ng/mL
[2]; 250 mg/kg
  Lung C24 h over SARS-CoV-2 IC50: 9.7 fold
[2]; 500 mg/kg
  Lung C24 h over SARS-CoV-2 IC50: 13.7 fold
[2]; 1000 mg/kg
  Lung C24 h over SARS-CoV-2 IC50: 40.9 fold
[2]; 6750 mg/kg (so in the source)
  Lung C24 h over SARS-CoV-2 IC50: 13.3 fold

From US20250025454A1 (priority 2021, published 2025)
